Results: patent US5650441A, “Method of assaying CD4 glycoproteins by using certain azo dyes” (The United States of America, as represented by the …, priority 1994, dated 1997)

Tests used:
[1] = target: T1, CD4 on PBL (Homo sapiens, UniProt P01730); test: Inhibition of binding of αCD4-FITC (anti-Leu3a) to PBL, flow cytometry; settings: for remaining activity at 7 µM: compound 7 μM
T1 construct: Human peripheral blood lymphocytes (PBL) were prepared by density gradient centrifugation; endogenous in cells; host or cells: human peripheral blood lymphocytes (PBL)
Experimental: (§1) Human peripheral blood lymphocytes (PBL) were prepared by density gradient centrifugation as previously described (Weaver et al., 1990). The effect of drugs on the binding of anti-CD4-FITC (αCD4), anti-CD3-FITC (αCD3), anti-CD8-FITC (αCDS), or HIV coat protein rgp120 was measured as previously described (Weaver et al., 1990). Briefly, cells were treated with a drug (10' RT) and then FITC labeled antibody or rgp120 followed by anti-rgp120-FITC. Binding was measured by quantitating cell bound fluorescence using flow cytometry. Some binding assays were run in phenol red free RPMI 1640/5% serum instead of the usual PBS to determine effectiveness under cell culture conditions.
Since anti-Leu3a (αCD4) and rgp120 bind to the same site on the CD4 molecule, interference in binding of αCD4 can be used to screen compounds for possible anti-HIV activity. EB or ATA are used as positive controls since they have been shown previously to block eCD4 and rpg120 binding (Weaver et al, "Polyionic compounds selectively alter availability of CD4 receptors for HIV coat protein rgp120," AIDS Res. Human Retrovir. 6 1125-1130 (1990)). […] Six of the dyes tested show significant ability to block αCD4 binding. Three compounds, Acid Blue 116, Acid Red 115, and Direct Red 79 were selected for more complete analysis.

[2] = target: T2, binding of HIV rgp120 to CD4 on peripheral blood lymphocytes (Homo sapiens, UniProt P01730); test: Inhibition of HIV rgp120 binding to PBL, detected with anti-rgp120-FITC, flow cytometry; settings: 10 min, rgp120 binding detected by αrgp120-FITC in PBS, % logarithmic mean channel number
T2 construct: Human peripheral blood lymphocytes (PBL) were prepared by density gradient centrifugation; endogenous in cells; host or cells: human peripheral blood lymphocytes (PBL)
Experimental: as §1
The results shown in Table 2 confirm that the three dyes selected on the basis of their interference with αCD4 binding can also block binding of rgp120. Their relative efficacy appears to be similar in both assays.

[3] = Viability of PBL after 72 hr culture with anti-TCR stimulation (propidium iodide exclusion); assay type: cell-based, human; settings: human, anti-tcr stimulated pbl; PBL, 72 hr culture with anti-TCR stimulation, 100 μM; untreated 78; read-out: % Viable Cells
Experimental: (§2) The effect of compounds on the viability of PBL was determined after culturing PBL for 72 hr at 37° C. Some cells were stimulated with 1 μl/ml of anti-T-cell receptor antibody for this time period. Cells were then washed 1× in PBS and resuspended in PBS with 3 μg/ml propidium iodide. After 10 min incubation cells were analyzed by flow cytometry. Live cells were defined as those excluding propidium iodide.

[4] = tested on: anti-TCR stimulated PBL; test: as above; assay type: cell-based, human; settings: Table 5
Experimental: as §2

[5] = tested on: αCD8 binding to PBL; test: Specificity: binding of αCD8-FITC to PBL; set-up: species or system human; settings: for % Control Binding αCD8: αCD8-FITC binding in PBS, 10 min
Experimental: as §1
(§3) We have analyzed the specificity of these compounds by testing their ability to interfere with the binding of two other monoclonal antibodies, αCD3 and αCD8. […] The increase in binding of αCD3 on Direct Red 79 treated cells may reflect nonspecific binding.

[6] = tested on: PBL; test: Viability of PBL after 72 hr culture (propidium iodide exclusion); assay type: cell-based, human; settings: 72 hr of continuous culture
Experimental: as §2

[7] = as above; assay type: cell-based, human; settings: human, PBL, 72 hr culture, untreated 90, read-out: % Viable Cells
Experimental: as §2

[8] = tested on: HIV isolate LAV-1BR in PHA stimulated human PBL; test: Production of intracellular HIV p24 measured by ELISA; assay type: cell-based; settings: for pg/ml HIV p24: intracellular p24, ELISA, DMSO control 1222
Experimental: (§4) The effect of various drugs on growth of HIV isolate LAV-1BR in PHA stimulated human PBL was measured using two assays. Reverse transcriptase activity was measured in disrupted virions from the cell free supernatant as previously described (Anand et al, "Interaction between rifabutin and human immunodeficiency virus type-1: inhibition of replication, cytopathic effect and reverse transcriptase in vitro," Antimicrob. Agents Chemother. 32 684-688 (1988)).

[9] = tested on: HIV isolate LAV-1BR in PHA stimulated human PBL; test: microbe, parasite or virus in culture; assay type: cell-based; settings: for CPM RT: [3H]-TTP incorporated by reverse transcriptase, DMSO control 6338
Experimental: as §4

[10] = target: T3, αCD3 binding to PBL (Homo sapiens, UniProt P07766); test: Specificity: binding of αCD3-FITC to PBL
T3 construct: Human peripheral blood lymphocytes (PBL) were prepared by density gradient centrifugation; endogenous in cells; host or cells: human peripheral blood lymphocytes (PBL)
Experimental: as §1, §3

[11] = Binding to serum proteins; assay type: in vitro ADME; settings: not shown
[12] = Solubility in aqueous solutions; assay type: physicochemical; settings: concentrations needed for efficacy in the presence of serum
[13] = 10 min, αCD4-FITC binding to PBL in PBS, % logarithmic mean channel number, read-out: % Control Binding
[14] = 10 min, αCD4-FITC binding to PBL in PBS, % logarithmic mean channel number, compound 10 μM, read-out: % Control Binding

T3 sequence (P07766 23-207): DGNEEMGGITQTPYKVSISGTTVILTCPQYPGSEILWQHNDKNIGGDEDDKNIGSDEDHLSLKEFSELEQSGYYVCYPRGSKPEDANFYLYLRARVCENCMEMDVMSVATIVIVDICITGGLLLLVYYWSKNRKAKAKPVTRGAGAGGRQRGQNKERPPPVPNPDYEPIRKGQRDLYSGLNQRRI
T3 sequence (P04234 22-171 partner): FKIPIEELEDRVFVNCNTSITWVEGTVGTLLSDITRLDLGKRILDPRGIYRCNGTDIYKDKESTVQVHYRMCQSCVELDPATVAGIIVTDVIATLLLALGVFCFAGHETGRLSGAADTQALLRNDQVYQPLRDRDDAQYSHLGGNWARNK
T3 sequence (P09693 23-182 partner): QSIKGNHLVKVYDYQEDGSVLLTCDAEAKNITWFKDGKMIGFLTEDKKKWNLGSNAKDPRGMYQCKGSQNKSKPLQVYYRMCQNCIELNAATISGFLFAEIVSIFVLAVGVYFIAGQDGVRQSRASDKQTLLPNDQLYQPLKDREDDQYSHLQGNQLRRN
T3 sequence (P20963 22-164 partner): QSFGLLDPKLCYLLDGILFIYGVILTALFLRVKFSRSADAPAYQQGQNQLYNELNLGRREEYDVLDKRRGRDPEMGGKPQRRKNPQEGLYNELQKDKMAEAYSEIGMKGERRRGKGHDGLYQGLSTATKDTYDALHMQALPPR

O=S(=O)(O)c1cccc(N=Nc2c(O)ccc3cc(S(=O)(=O)O)cc(S(=O)(=O)O)c23)c1 [FD1]
remaining activity at 5 µM ([1]; 10 min, αCD4-FITC binding to PBL in PBS, % logarithmic mean channel number, compound 5 μM, read-out: % Control Binding): 102%

Cc1cc(-c2cc(C)c(N=Nc3c(O)ccc4ccccc34)cc2S(=O)(=O)O)c(S(=O)(=O)O)cc1N=Nc1c(O)ccc2ccccc12 [Acid Red 89, C.I. Acid Red 89]
remaining activity at 7 µM [1, 13]: 6%

COc1cc(N=Nc2cc(S(=O)(=O)O)cc3cc(S(=O)(=O)O)cc(O)c23)c(C)cc1NC(=O)Nc1cc(C)c(N=Nc2cc(S(=O)(=O)O)cc3cc(S(=O)(=O)O)cc(O)c23)cc1OC [Direct Red 79, C.I. Direct Red 79]
remaining activity at 20 µM ([1]; 10 min, Table 3, αCD4-FITC binding in PBS, compound 20 μM, read-out: % Control Binding αCD4): 22% | remaining activity at 10 µM [1, 14]: 13% | remaining rgp120 binding (% of control) at 10 µM ([2]; compound 10 μM): 30% | viability at 72 h, 100 µM [3]: 54% | effect on the proliferation of αTCR stimulated PBL (in words) [4]: limited effect | effect on binding of αCD8 (in words) ([5]; Table 3): does not affect binding | % Control Binding αCD8 ([5]; compound 20 μM): 106% | effect on the viability of PBL (in words) [6]: no effect | viability at 72 h, 400 µM ([7]; 400 μM): 89% | p24 production (in words) ([8]; intracellular HIV p24 protein): strongly decrease | pg/ml HIV p24 ([8]; 5 μg/ml): 333 pg/mL | inhibition at 100 µM ([9]; Human immunodeficiency virus 1, 144 h, HIV reverse transcriptase activity, six day culture, 100 μM): 97% | CPM RT ([9]; six day culture, 100 μM): 145 CPM | production of reverse transcriptase activity (in words) ([9]; after six days of culture): strongly inhibit | αCD3 binding, % of control at 20 µM ([10]; 10 min, αCD3-FITC binding in PBS, compound 20 μM): 124% | effect on binding of αCD3 (in words) ([10]; Table 3): does not affect binding

O=C(Nc1ccc(N=Nc2ccc(O)c(C(=O)O)c2)cc1)Nc1ccc(N=Nc2ccc(O)c(C(=O)O)c2)cc1 [Direct Yellow 26, C.I. Direct Yellow 26]
remaining activity at 12 µM ([1]; 10 min, αCD4-FITC binding to PBL in PBS, % logarithmic mean channel number, compound 12 μM, read-out: % Control Binding): 84%

Cc1cc(NC(=O)Nc2ccc(N=Nc3cc(S(=O)(=O)O)c4cccc(S(=O)(=O)O)c4c3)c(C)c2)ccc1N=Nc1cc(S(=O)(=O)O)c2cccc(S(=O)(=O)O)c2c1 [Direct Yellow 50, reference compound]
remaining activity at 50 µM ([1]; 10 min, αCD4-FITC binding to PBL in PBS, % logarithmic mean channel number, compound 50 μM, read-out: % Control Binding): 42%

Nc1ccc2cc(S(=O)(=O)O)cc(O)c2c1N=Nc1ccc(NC(=O)Nc2ccc(N=Nc3c(N)ccc4cc(S(=O)(=O)O)cc(O)c34)c(S(=O)(=O)O)c2)cc1S(=O)(=O)O [Direct Red 75, C.I. Direct Red 75]
remaining activity at 10 µM [1, 14]: 70%

O=C(O)C1=CC(=C(c2ccc(O)c(C(=O)O)c2)c2ccc(O)c(C(=O)O)c2)C=CC1=O [ATA, aurin tricarboxlyic acid, reference compound]
binding to serum proteins (in words) [11]: does not bind to serum proteins | viability at 72 h, 10 µM ([7]; 10 μM): 86% | pg/ml HIV p24 ([8]; 0.25 μg/ml): 111 pg/mL | pg/ml HIV p24 ([8]; 2.5 μg/ml): 0 pg/mL | inhibition at 1 µM ([9]; Human immunodeficiency virus 1, 144 h, HIV reverse transcriptase activity, six day culture, 1 μM): 97% | CPM RT ([9]; six day culture, 1 μM): 109 CPM

O=S(=O)(O)c1ccc2c(N=Nc3ccccc3)ccc(N=Nc3ccc(Nc4ccccc4)c4c(S(=O)(=O)O)cccc34)c2c1 [Acid Blue 116, C.I. Acid Blue 116]
solubility in aqueous solutions (in words) [12]: near their limits of solubility | remaining activity at 4 µM ([1]; 10 min, Table 3, αCD4-FITC binding in PBS, compound 4 μM, read-out: % Control Binding αCD4): 1% | remaining activity at 7 µM [1, 13]: 0% | remaining rgp120 binding (% of control) at 7 µM ([2]; compound 7 μM): 9% | reduction of binding of αCD8 (fraction) ([5]; Table 3): about 1/2 | % Control Binding αCD8 ([5]; compound 4 μM): 54% | αCD3 binding, % of control at 4 µM ([10]; 10 min, αCD3-FITC binding in PBS, compound 4 μM): 44% | reduction of binding of αCD3 (fraction) ([10]; Table 3): about 1/2

COc1cc(-c2ccc(N=Nc3ccc4c(S(=O)(=O)[O-])cc(S(=O)(=O)[O-])c(N)c4c3O)c(OC)c2)ccc1N=Nc1ccc2c(S(=O)(=O)[O-])cc(S(=O)(=O)[O-])c(N)c2c1O.[Na+].[Na+].[Na+].[Na+] [Direct Blue 1, C.I. Direct Blue 1]
% Control Binding ([1]; αCD4-FITC binding to PBL in PBS, % logarithmic mean channel number, compound 10 μM): 1%

Cc1ccccc1N=Nc1ccc(N=Nc2c(O)c(S(=O)(=O)[O-])cc3cc(S(=O)(=O)[O-])ccc23)c(C)c1.[Na+].[Na+] [Acid Red 115, C.I. Acid Red 115]
solubility in aqueous solutions (in words) [12]: near their limits of solubility | % Control Binding αCD4 ([1]; Table 3, αCD4-FITC binding in PBS, compound 6 μM, 10 min): 2% | % Control Binding ([1]; αCD4-FITC binding to PBL in PBS, % logarithmic mean channel number, compound 6 μM, 10 min): 2% | % Control Binding ([2]; compound 6 μM): 10% | % Control Binding αCD8 ([5]; compound 6 μM): 90% | effect on binding of αCD3 (in words) ([10]; Table 3): interferes with αCD3 | % Control Binding αCD3 ([10]; αCD3-FITC binding in PBS, compound 6 μM, 10 min): 41%
